Laboratory results taken from patent US11001578B2, “N-((HET)arylmethyl)-heteroaryl-carboxamides compounds as plasma kallikrein inhibitors” (KALVISTA PHARMACEUTICALS LIMITED, priority 2014, dated 2021).
pIC50: −log10 of the molar value.

Key:
Human KLK1 = Human KLK1 (Homo sapiens (Human), UniProt P06870); assay: Determination of the IC50 for KLK1 (fluorogenic substrate H-DVal-Leu-Arg-AFC); assay type: biochemical; conditions: 25° C.
Description: Determination of the IC50 for KLK1
Human KLK1 (Callbiochem) was incubated at 25° C. with the fluorogenic substrate H-DVal-Leu-Arg-AFC and various concentrations of the test compound. Residual enzyme activity (initial rate of reaction) was determined by measuring the change in […] at 410 nm and the IC50 value for the test compound was determined.

Human FXIa = Human FXIa (Homo sapiens (Human), UniProt P03951); assay: Determination of the % inhibition for FXIa (fluorogenic substrate Z-Gly-Pro-Arg-AFC); assay type: biochemical; conditions: 40 μM of the test compound, 25° C.
Human FXIa, sequence (P03951 388-625 limits assumed): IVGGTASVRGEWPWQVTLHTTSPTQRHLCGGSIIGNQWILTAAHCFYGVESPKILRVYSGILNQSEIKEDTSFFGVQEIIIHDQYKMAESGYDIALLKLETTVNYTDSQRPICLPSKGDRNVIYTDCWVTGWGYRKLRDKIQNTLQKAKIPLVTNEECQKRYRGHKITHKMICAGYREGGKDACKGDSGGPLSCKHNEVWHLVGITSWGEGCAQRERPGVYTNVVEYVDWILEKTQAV
Human FXIa, sequence (P03951 19-387 partner limits assumed): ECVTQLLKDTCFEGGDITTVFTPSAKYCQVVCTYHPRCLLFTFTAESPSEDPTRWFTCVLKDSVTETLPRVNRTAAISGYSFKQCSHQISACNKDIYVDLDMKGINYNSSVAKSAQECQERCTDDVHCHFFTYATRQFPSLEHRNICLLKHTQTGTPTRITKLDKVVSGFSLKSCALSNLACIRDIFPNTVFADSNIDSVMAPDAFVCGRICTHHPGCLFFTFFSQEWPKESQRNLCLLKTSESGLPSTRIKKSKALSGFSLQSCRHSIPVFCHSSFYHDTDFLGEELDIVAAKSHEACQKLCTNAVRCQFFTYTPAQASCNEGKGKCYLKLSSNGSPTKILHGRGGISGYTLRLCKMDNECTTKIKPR
Description: Determination of the % Inhibition for FXIa
Human FXIa (Enzyme Research Laboratories) was incubated at 25° C. with the fluorogenic substrate Z-Gly-Pro-Arg-AFC and 40 μM of the test compound. Residual enzyme activity (initial rate of reaction) was determined by measuring the change in […].

Human KLK1, sequence (P06870 25-262): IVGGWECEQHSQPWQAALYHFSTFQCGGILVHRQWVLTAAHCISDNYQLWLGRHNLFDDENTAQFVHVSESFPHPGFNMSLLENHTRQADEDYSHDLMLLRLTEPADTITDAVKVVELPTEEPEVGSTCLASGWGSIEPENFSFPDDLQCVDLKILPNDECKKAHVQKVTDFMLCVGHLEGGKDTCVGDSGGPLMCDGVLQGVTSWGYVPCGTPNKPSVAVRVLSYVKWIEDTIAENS

pIC50 (Human KLK1)	% Inhibition @ 40 μM (human FXIa) (Human FXIa) [%]	SMILES
< 5.00		COc1cc(F)c(CNC(=O)c2cn(Cc3ccc(Cn4cc(C)cn4)cc3)nc2C(F)(F)F)c(F)c1 [Example 11, N-[(2,6-difluoro-4-methoxyphenyl)methyl]-1-({4-[(4-methylpyrazol-1-yl)methyl]phenyl}methyl)-3-(trifluoromethyl)pyrazole-4-carboxamide]
	0	NC(=O)c1cccc(CNC(=O)c2cn(Cc3ccc(Cn4ccccc4=O)cc3)nc2C2CC2)c1 [Example 49, N-[(3-carbamoylphenyl)methyl]-3-cyclopropyl-1-({4-[(2-oxopyridin-1-yl)methyl]phenyl}methyl)pyrazole-4-carboxamide]
	0	Nc1nn(Cc2ccc(Cn3ccccc3=O)cc2)cc1C(=O)NCc1ccc(OC(F)(F)F)cc1 [Example 58, 3-amino-1-({4-[(2-oxopyridin-1-yl)methyl]phenyl}methyl)-N-{[4-(trifluoromethoxy)phenyl]methyl}pyrazole-4-carboxamide]

SMILES	pIC50 (Human KLK1)	% Inhibition @ 40 μM (human FXIa) (Human FXIa) [%]
COc1cccc(CNC(=O)c2cn(Cc3ccc(Cn4ccccc4=O)cc3)nc2C2CC2)c1F [Example 52, 3-cyclopropyl-N-[(2-fluoro-3-methoxyphenyl)methyl]-1-({4-[(2-oxopyridin-1-yl)methyl]phenyl}methyl)pyrazole-4-carboxamide]		1
